Laboratory results: publication PMC4603705, “A bioinspired peptide scaffold with high antibiotic activity and low in vivo toxicity” (Scientific Reports, 2015)
Values after ≈ are worked out from the molar mass of the structure shown. Values joined by “and” are separate entries in the source; they are usually repeats but may differ in a detail not shown here. Identical values can stand only once. Like-named read-outs stand apart in the source and are kept apart here. Bridge positions count the residues as written; N and C are the ends. Square brackets hold non-standard residues; d marks the D form. Peptide text beside a SMILES is read from it. * marks the point of attachment. Lauroyl = CCCCCCCCCCCC(=O)*; Nonanoyl = CCCCCCCCC(=O)*; Nle = CCCC[C@H](N)C(=O)O; Dab = NCC[C@H](N)C(=O)O

How the values were obtained:
P. aeruginosa ATTC 9027 = format: cell-based, Pseudomonas aeruginosa; details: ATTC 9027
Description: (§1) MICs were measured after 18–20 h of incubation in sterile 96-well plates (Corning Costar 3598 microtiter plates) in Mueller Hinton Broth (MHB) culture medium, (Difco, USA), according to well known in vitro protocols. Bacterial strains in Table 1 were: P. aeruginosa ATTC 9027, E. coli ATTC 8739, S. aureus ATTC 6538, and E. faecalis ATTC 29212. MICs shown in table 4 were performed by Mary Conrad at Cubist Pharmaceuticals (Lexington, MA) in non-binding surface plates.

E. coli ATTC 8739 = format: cell-based, Escherichia coli; details: ATTC 8739
Description: as §1

E. faecalis ATTC 29212 = experiment: microbe, parasite or virus in culture; format: cell-based, Enterococcus faecalis; details: ATTC 29212
Description: Lipopeptide 39 was chosen for this, as it is known that long fatty acids tend to favor activity against Gram-positive bacteria in polymyxin analogs. […] In summary, new broad-spectrum antimicrobial lipopeptides were achieved.
as §1

S. aureus = experiment: microbe, parasite or virus in culture; format: cell-based, Staphylococcus aureus
Description: as §1

P. aeruginosa = system: P. aeruginosa
Description: (§2) Strains of E. coli and P. aeruginosa with resistance to quinolones and carbapenems as well as multi-drug-resistant bacteria were tested.
as §1

E. coli = details: for MIC E. coli NDM-1: highly-resistant, New Delhi metallo-beta-lactamase gene; for MIC E. coli VAL 5 / MIC E. coli MAC 21a / MIC E. coli VAL 10: resistant to nalidixic acid; for MIC E. coli MAC 21a / MIC E. coli VAL 10: cotrimoxazole and ampicillin
Description: as §2, §1

E. coli (ATCC 25922) [1] = experiment: Reduction of viability by plate count, E. coli; format: cell-based, Escherichia coli; details: 5 μg/mL
Description: (§3) An overnight culture (12 to 16 h) of S. aureus (ATCC 29213) or E. coli (ATCC 25922) in Tryptic Soy Broth (TSB) was grown at 37 °C and 400 μL were added in 50 mL of tryptone water (∼10^7 bacteria/mL). The bacterial suspension was split into aliquots of 4-5 mL and treated with the peptides (at the MIC) for different incubation times at room temperature. Cells were collected by centrifugation (10000 rpm, 20 min) and resuspended in 1 mL of filtered Ringer’s solution.

E. coli (ATCC 25922) [2] = experiment: Flow cytometry (PI membrane permeability, BOX membrane potential), E. coli; format: cell-based, Escherichia coli; details: 5 μg/mL
Description: The mechanism of action at the membrane level of our best candidate was studied using flow cytometry. To assess membrane permeability, a propidium iodide (PI) probe was used[43][44]. The fluorescence conferred by this probe is generally associated with cells that have lost their membrane integrity. The effect on membrane potential was evaluated with bis-(1,3-dibutylbarbituric acid) trimethine oxonol (BOX). Membrane depolarization leads to the incorporation of this anionic dye into the cell where it binds to lipid-rich intracellular compounds, resulting in an increase in fluorescence.
as §3
A stock solution of propidium iodide (PI, 1 mg/mL, Molecular Probes) and bis-(1,3-dibutylbarbituric acid) trimethine oxonol (BOX, 250 μM, Sigma Aldrich) was prepared in distilled water. Portions (10 μL and 2 μL, respectively) were added to aliquots of cells (100 μL of each sample in 1 mL of Ringer’s solution) to give a final concentration of 10 μg/mL of PI and 0.5 μM for BOX.
Flow cytometric measurements were performed on a Gallios multi-colour flow cytometer instrument (Beckman Coulter, Inc, Fullerton, CA) set up with the 3-lasers 10 colors standard configuration. Excitation was done using a blue (488 nm) laser. Forward scatter (FS), side scatter (SS), green fluorescence (525/40 nm) from BOX and red fluorescence (620/30 nm) emitted by PI were collected using logarithmic scales. FS was used as the discriminating parameter. The single-cell bacterial population was selected on a forward-side scatter plot. Fluorescence was presented in a dot plot of BOX vs. PI. Three regions were defined on this graph according to the controls: depolarized, permeabilized and non-affected cells. Control cells (non-stained and single stained populations) were used to define these regions. 25,000 cells defined according to their scatter parameters were counted in each sample.

[3] = system: Madine-Darby canine kidney cells (MDCK, renal model); experiment: In vitro cytotoxicity (WST-1 cell viability), MDCK; format: cell-based; details: for IC50 MDCK Exp1: Supplementary Table S2, experiment 1; for IC50 MDCK Exp2: Supplementary Table S2, experiment 2; for IC50 MDCK: cytotoxicity, WST-1
Description: (§4) Cell viability assays were performed using the tetrazolium dye WST1 (similar to MTT) on human dermal fibroblasts (3T3 hDF), MDCK (renal model, Madin-Darby canine kidney cells) and PC12 (NGF treated; neuronal model) cell lines and followed standard protocols. Briefly, cells were seeded into 96-well plates, after incubation for 24 h, the medium was replaced with fresh cell culture medium containing the products (range 0-1.2 mg/mL). Negative and positive controls consisted of plates in the absence of the test compound and plates with sodium dodecyl sulfate (0.02% w/v), respectively. Cell viability was assayed with the tetrazolium salt (4-[3-(4- iodophenyl)-2-(4-nitrophenyl)-2H-5-tetrazolio]-1,3-benzene disulfonate) (WST-1). The relative WST-1 absorbance was recorded at 450 nm.
(§5) The products at concentrations ranging from 0 to 1.2 mg/mL were tested (triplicate) and in two independent experiments. The statistical analysis of the data was performed by using non-linear regression (curve-fit) and the model used agreed with the four parameter logistic model (4PL), also called the Hill-Slope model (sigmoid model), with the following equation: […]
(§6) where y is the percent activity and x is the corresponding concentration. The quantities determined where the point estimate IC50 (Half maximal (50%) inhibitory concentration (IC) of a substance, see Table II), the corresponding 95% confidence interval and R^2 (measures the goodness of fit) are shown in the Supplementary Table S2.

S. aureus ATTC 6538 = experiment: microbe, parasite or virus in culture; format: cell-based, Staphylococcus aureus; details: ATTC 6538
Description: as §1

[4] = system: human dermic fibroblasts (hDF); experiment: In vitro cytotoxicity (WST-1 cell viability), hDF; format: cell-based; details: for IC50 hDF Exp1: Supplementary Table S2, experiment 1; for IC50 hDF Exp2: Supplementary Table S2, experiment 2; for IC50 hDF: cytotoxicity, WST-1
Description: as §4, §5, §6

[5] = system: PC12 (treated with NGF, neuronal model); experiment: In vitro cytotoxicity (WST-1 cell viability), PC12; format: cell-based; details: WST-1, NGF treated
Description: as §4, §5, §6

Molecule | MIC P. aeruginosa (P. aeruginosa ATTC 9027) [µg/mL] | MIC E. coli (E. coli ATTC 8739) [µg/mL] | MIC E. coli NDM-1 (E. coli) [µg/mL] | MIC E. coli VAL 5 (E. coli) [µg/mL] | MIC E. coli MAC 21a (E. coli) [µg/mL] | MIC E. coli VAL 10 (E. coli) [µg/mL] | IC50 MDCK Exp1 [3] [µg/mL] | IC50 MDCK Exp2 [3] [µg/mL] | IC50 MDCK [3] [µg/mL] | IC50 hDF Exp1 [4] [µg/mL] | IC50 hDF Exp2 [4] [µg/mL] | IC50 hDF [4] [µg/mL] | IC50 PC12 [5] [µg/mL] | also measured
CCCCCCCCCCCC(=O)N[C@@H](CCN)C(=O)N[C@H](C(=O)N[C@@H](CCN)C(=O)N[C@H]1CSSC[C@H](C(N)=O)NC(=O)[C@H](CCN)NC(=O)[C@H](CCN)NC(=O)[C@H](CCCC)NC(=O)[C@@H](Cc2ccccc2)NC(=O)[C@H](CCN)NC1=O)[C@@H](C)O [Analog 39, dodecanoyl-Dab-Thr-Dab-Cys-Dab-Phe-Nle-Dab-Dab-Cys] (Lauroyl-[Dab]T[Dab]C[Dab][dF][Nle][Dab][Dab][dC]-NH2; disulfide 4-10) | 1 (≈ 0.79 µM) | 4 (≈ 3.16 µM) | 0.5 (≈ 0.395 µM) | 0.5 (≈ 0.395 µM) | 1 (≈ 0.79 µM) | 0.5 (≈ 0.395 µM) |  |  |  |  |  |  |  | MIC E. faecalis Wild type ATTC 29212 (E. faecalis ATTC 29212): 2 to 4 µg/mL; MIC S. aureus DR, MR SAU.1616 (S. aureus): 8 µg/mL (≈ 6.32 µM); MIC S. aureus DR, MS SAU.278 (S. aureus): 2 µg/mL (≈ 1.58 µM); MIC S. aureus MR ATTC 43300 (S. aureus): 1 µg/mL (≈ 0.79 µM); MIC S. aureus MR SAU.1118 (S. aureus): 1 µg/mL (≈ 0.79 µM); MIC S. aureus MS ATTC 29213 (S. aureus): 1 µg/mL (≈ 0.79 µM); MIC P. aeruginosa 38a (P. aeruginosa): 1 µg/mL (≈ 0.79 µM); MIC P. aeruginosa 40b (P. aeruginosa): 2 µg/mL (≈ 1.58 µM)
PxB nonapeptide [PxBN] |  |  |  |  |  |  |  |  |  |  |  |  |  | % viability reduction (E. coli (ATCC 25922) [1]; 30 min): 0%; % viability reduction (E. coli (ATCC 25922) [1]; 60 min): 5%; % of stained cells BOX (E. coli (ATCC 25922) [2]; 30 min): 5%; % of stained cells PI (E. coli (ATCC 25922) [2]; 30 min): 10%; % of stained cells BOX (E. coli (ATCC 25922) [2]; 60 min): 3%-6% and 6%; % of stained cells PI (E. coli (ATCC 25922) [2]; 60 min): 3%-6% and 3%
colistin [PxE, reference compound] |  |  | 0.5 | 0.25 | 0.5 | 0.5 |  |  |  |  |  |  |  | MIC P. aeruginosa 38a (P. aeruginosa; resistant to ceftazidime, ciprofloxacin, imipenem, piperacillin-tazobactam): 1 µg/mL; MIC P. aeruginosa 40b (P. aeruginosa; resistant to imipenem): 1 µg/mL
CCCCCCCCC(=O)N[C@@H](CCCNC(=N)N)C(=O)N[C@H](C(=O)N[C@@H](CCCNC(=N)N)C(=O)N[C@H]1CSSC[C@@H](C(N)=O)NC(=O)[C@H](CCCNC(=N)N)NC(=O)[C@H](CCCNC(=N)N)NC(=O)[C@H](CC(C)C)NC(=O)[C@@H](Cc2ccccc2)NC(=O)[C@H](CCCNC(=N)N)NC1=O)[C@@H](C)O [Analog 12] (Nonanoyl-RTRCR[dF]LRRC-NH2; disulfide 4-10) | 16 to 32 | 8 to 16 |  |  |  |  | 233 (≈ 155 µM) | 147 (≈ 97.7 µM) | 190 (≈ 126 µM) | 147 (≈ 97.7 µM) | 181 (≈ 120 µM) | 164 (≈ 109 µM) | 225 (≈ 150 µM) | MIC S. aureus (S. aureus ATTC 6538): 8 µg/mL (≈ 5.32 µM)
CCCCCCCCC(=O)N[C@@H](CCCNC(=N)N)C(=O)N[C@H](C(=O)N[C@@H](CCCNC(=N)N)C(=O)N[C@H]1CSSC[C@@H](C(N)=O)NC(=O)[C@H](CCN)NC(=O)[C@H](CCCNC(=N)N)NC(=O)[C@H](CC(C)C)NC(=O)[C@@H](Cc2ccccc2)NC(=O)[C@H](CCN)NC1=O)[C@@H](C)O [Analog 8, nonanoyl-Arg-Thr-Arg-Cys-Dab-Phe-Leu-Arg-Dab-Cys] (Nonanoyl-RTRC[Dab][dF]LR[Dab]C-NH2; disulfide 4-10) | 8 (≈ 5.75 µM) | 4 (≈ 2.87 µM) |  |  |  |  | 417 (≈ 299 µM) | 528 (≈ 379 µM) | 472 (≈ 339 µM) | 421 (≈ 302 µM) | 502 (≈ 361 µM) | 461 (≈ 331 µM) | 595 (≈ 428 µM) | 
